pIC50: −log10 of the molar value. Where two headings read alike, the source gives them in different places.
Biological target: LMPTP-A (Low Molecular Weight Protein Tyrosine Phosphatase-A) enzyme (Homo sapiens (Human), UniProt P24666)
Assay: LMPTP primary screening / LMPTP (OMFP) enzyme inhibition assay, fluorescence intensity
Type: biochemical
Protocol: This assay attempts to identify inhibitors of the LMPTP-A (Low Molecular Weight Protein Tyrosine Phosphatase-A) enzyme. It is run in 1536-well format and is measured via fluorescence intensity.
A listing of materials is provided: • Item, source, catalog no. • LMPTP-A Enzyme Stock Solution (4.22 mg/ml or 206.8 μM), SBMRI Protein Facility, • N/A • OMFP, Sigma, M2629-100MG • Bis-Tris pH 6.0, Fisher Sci, BP301-100 • Triton-X 100, Sigma, T9284 • DTT, Sigma, D9779 • Mol. Grade Water, Mediatech, Inc., 46-000-CM • 1536-well black High base opaque bottom plate, Nexus Biosystems, 00019120
Final assay conditions are: • 0.625 nM LMPTP-A Enzyme • 400 μM OMFP • 50 mM Bis-Tris pH 6.0 • 1 mM DTT • 0.01% Triton-X 100 • 20 μM test compound • 3% DMSO (2% from substrate and 1% from compounds) • 6 μL reaction volume • 50 minutes incubation at room temp
Assay Procedure • 1. Prepare Reagents as described in section F. Recipe. • 2. Using LabCyte Echo, transfer 60 nL from 2 mM test compound source plate into assay plate Col. 5-48 (final concentration of test compounds is 20 μM). 60 nL of DMSO should be transferred to col. 1-4 for positive and negative control wells. • 3. Spin plates at 1000 rpm for 1 minute in centrifuge. • 4. […] Using the Bioraptr, add 3 μL/well of enzyme solution to col. 3-48. • 6. Using the Bioraptr, add 3 μL/well of substrate solution to col. 1-48. • 7. Spin plates at 1000 rpm for 1 minute in centrifuge. • 8. Incubate plates in the dark at room temperature for 50 minutes. • 9. Read plates on PerkinElmer Viewlux using a FI protocol.

[1] = LMPTP-A, OMFP substrate, method of Example 2, read-out: IC50

LMPTP-A (Low Molecular Weight Protein Tyrosine Phosphatase-A) enzyme, sequence (P24666 whole entry): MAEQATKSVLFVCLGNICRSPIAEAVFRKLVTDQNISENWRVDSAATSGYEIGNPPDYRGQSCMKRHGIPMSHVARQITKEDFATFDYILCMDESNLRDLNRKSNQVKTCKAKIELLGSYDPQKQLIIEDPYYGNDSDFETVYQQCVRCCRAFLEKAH

| Compound | pIC50 [1] | other results |
| --- | --- | --- |
| COc1ccc(-c2cc(Nc3ccc(CN4CCCCC4)cc3)c3ccccc3n2)cc1 [Compound I23, [2-(4-methoxyphenyl)(4-quinolyl)][4-(piperidylmethyl)phenyl]amine] | 5.30 to 6.10 |  |
| Fc1cc(Cl)ccc1-c1cc(NCCCN2CCCCC2)c2ccccc2n1 [Compound I126] | 6.10 to 6.70 |  |
| Fc1cc(Cl)ccc1-c1cc(Nc2cccc(CC3CCNCC3)c2)c2ccccc2n1 [Compound I7, [2-(4-chloro-2-fluorophenyl)(4-quinolyl)][3-(4-piperidylmethyl)phenyl]amine] | 5.30 to 6.10 |  |
| (2-morpholin-4-ylethyl)(2-phenyl(4-quinolyl))amine [Compound I180] | 5.30 to 6.10 |  |
| c1ccc2c(NCCCN3CCCCC3)cc(-c3cncnc3)nc2c1 [Compound I143] | 5.30 to 6.10 |  |
| COc1ccc(-c2cc(Nc3cccc(CC#N)c3)c3ccccc3n2)cc1 [Compound I36, 2-(3-{[2-(4-methoxyphenyl)-4-quinolyl]amino}phenyl)ethanenitrile] | 5.30 to 6.10 |  |
| NC(=O)c1cccc(-c2cc(NCCCN3CCCCC3)c3ccccc3n2)c1 [Compound I123] | 5.30 to 6.10 |  |
| c1ccc2c(NCCCN3CCCCC3)cc(-c3ccc4ccsc4c3)nc2c1 [Compound I78] | 6.10 to 6.70 |  |
| COc1ccc(-c2cc(NCCCN3CCCCC3)c3ccc(OC)cc3n2)cc1 [Compound G26, [7-Methoxy-2-(4-methoxy-phenyl)-quinolin-4-yl]-(3-piperidin-1-yl-propyl)-amine] | < 5.30 |  |
| CCOc1ccc(C(F)(F)F)c(-c2cc(NCCCN3CCCCC3)c3ccccc3n2)c1 [Compound I105] | 5.30 to 6.10 |  |
| Fc1cccnc1-c1cc(NCCCN2CCCCC2)c2ccccc2n1 [Compound I94] | 5.30 to 6.10 |  |
| Cc1cccc(-c2nc(NCCCN3CCOCC3)c3ccccc3n2)c1 [Entry 1] |  | pIC50 (Table 1 quinazolinone series, CP sample (cherry pick of DMSO solution from NIH MLSMR), read-out: LMPTP (OMFP) (IC50)): 5.15; pIC50 (Table 1 quinazolinone series, P sample (purchased from commercial sources), read-out: LMPTP (OMFP) (IC50)): 4.87; pIC50 (initial screening hits (Scheme 4), read-out: IC50): 5.15; pIC50 (read-out: LMPTP (OMFP) IC50): 4.87 |
| c1ccc2c(NCCCN3CCCCC3)cc(-c3ccoc3)nc2c1 [Compound G14, (2-Furan-3-yl-quinolin-4-yl)-(3-piperidin-1-yl-propyl)-amine] | 5.30 to 6.10 |  |
| c1ccc2c(NCCCN3CCCCC3)cc(-c3ccc4[nH]ccc4c3)nc2c1 [Compound I110] | 5.30 to 6.10 |  |
| COc1ccc(-c2cc(NCCc3ccncc3)c3ccccc3n2)cc1 [Compound I201, [2-(4-methoxyphenyl)(4-quinolyl)](2-(4-pyridyl)ethyl)amine] | 5.30 to 6.10 |  |
| c1csc(-c2cc(NCCCC3CCCNC3)c3ccccc3n2)c1 (stereo not drawn) [Compound I144, (3-piperidylpropyl)(2-(2-thienyl)(4-quinolyl))amine] | 5.30 to 6.10 |  |
| Fc1cccc(-c2cc(NCCCN3CCCCC3)c3ccccc3n2)c1 [Compound G7, [2-(3-Fluoro-phenyl)-quinolin-4-yl]-(3-piperidin-1-yl-propyl)-amine] | 5.30 to 6.10 |  |
| NC(=O)c1ccc(-c2cc(NCc3ccc(CN4CCCCC4)cc3)c3ccccc3n2)cc1 [Compound I213, 4-[4-({[4-(piperidylmethyl)phenyl]methyl}amino)-2-quinolyl]benzamide] | < 5.30 |  |
| CS(=O)(=O)c1ccc(-c2cc(NCCCN3CCCCC3)c3ccccc3n2)cc1 [Compound I132] | 5.30 to 6.10 |  |
| Fc1cc(F)c(-c2cc(NCCCN3CCCCC3)c3ccccc3n2)cc1F [Compound I86] | 5.30 to 6.10 |  |
| CS(=O)(=O)c1cccc(-c2cc(NCCCN3CCCCC3)c3ccccc3n2)c1 [Compound I146] | 5.30 to 6.10 |  |
| N#Cc1cccc(Nc2cc(-c3ccccc3C(F)(F)F)nc3ccccc23)c1 [Compound G32, 3-[2-(2-Trifluoromethyl-phenyl)-quinolin-4-ylamino]-benzonitrile] | 5.30 to 6.10 |  |
| Clc1cccc(-c2cc(Nc3cccc(CC4CCN(Cc5ccccc5)CC4)c3)c3ccccc3n2)c1 [Compound I17, [2-(3-chlorophenyl)(4-quinolyl)](3-{[1-benzyl(4-piperidyl)]methyl}phenyl)amine] | 5.30 to 6.10 |  |
| COc1ccc(-c2cc(Nc3ccc(CN(C)C)cc3)c3ccccc3n2)cc1 [Compound I26, [(4-{[2-(4-methoxyphenyl)(4-quinolyl)]amino}phenyl)methyl]dimethylamine] | 5.30 to 6.10 |  |

| Compound | pIC50 [1] | other results |
| --- | --- | --- |
| Fc1cc(Cl)ccc1-c1cc(Nc2ccc(CN3CCCCC3)cc2)c2ccccc2n1 [Compound I8, [2-(4-chloro-2-fluorophenyl)(4-quinolyl)][4-(piperidylmethyl)phenyl]amine] | 5.30 to 6.10 |  |
| Fc1cc(Cl)ccc1-c1cc(Nc2cccc(CN3CCCC3)c2)c2ccccc2n1 [Compound I10] | 5.30 to 6.10 |  |
| COc1ccc(-c2cc(NCCc3ccc(Cl)cc3)c3ccccc3n2)cc1 [Compound G84, [2-(4-chlorophenyl)ethyl][2-(4-methoxyphenyl)(4-quinolyl)]amine] | 5.30 to 6.10 |  |
| COc1ccc(-c2cc(NCCc3ccc(F)cc3)c3ccccc3n2)cc1 [Compound G87, [2-(4-fluorophenyl)ethyl][2-(4-methoxyphenyl)(4-quinolyl)]amine] | 5.30 to 6.10 |  |
| FC(F)(F)Oc1ccccc1-c1cc(NCCCN2CCCCC2)c2ccccc2n1 [Compound G2, (3-Piperidin-1-yl-propyl)-[2-(2-trifluoromethoxy-phenyl)-quinolin-4-yl]-amine] | 6.10 to 6.70 |  |
| CCCCOc1ncccc1-c1cc(NCCCN2CCCCC2)c2ccccc2n1 [Compound I93] | 5.30 to 6.10 |  |
| CCN(CC)C(=O)c1ccc(-c2cc(NCCCN3CCCCC3)c3ccccc3n2)cc1 [Compound I1, N,N-diethyl-4-(4-((3-(piperidin-1-yl)propyl)amino)quinolin-2-yl)benzamide] | 6.10 to 6.70 |  |
| COc1ccc(-c2cc(NCCc3ccccn3)c3ccccc3n2)cc1 [Compound I199, [2-(4-methoxyphenyl)(4-quinolyl)](2-(2-pyridyl)ethyl)amine] | 5.30 to 6.10 |  |
| COc1ccc(-c2cc(NCc3cccc(OC)c3)c3ccccc3n2)cc1 [Compound G78, [2-(4-methoxyphenyl)(4-quinolyl)][(3-methoxyphenyl)methyl]amine] | 5.30 to 6.10 |  |
| CN(C)c1cc(-c2ccco2)nc2ccccc12 [Compound G13, (2-Furan-2-yl-quinolin-4-yl)-dimethyl-amine] | < 5.30 |  |
| O=C(NCCO)c1ccc(-c2cc(NCCCN3CCCCC3)c3ccccc3n2)cc1 [Compound I227] | 5.30 to 6.10 |  |
| CCN(C)C(=O)c1ccc(-c2cc(NCCCN3CCCCC3)c3ccccc3n2)cc1 [Compound I266] | 5.30 to 6.10 |  |
| COc1ccc(-c2cc(Nc3cccc(CN4CCCC4)c3)c3ccccc3n2)cc1 [Compound G50, [2-(4-methoxyphenyl)(4-quinolyl)][3-(pyrrolidinylmethyl)phenyl]amine] | 6.10 to 6.70 |  |
| COc1ccc(-c2cc(NCc3ccccc3OC)c3ccccc3n2)cc1 [Compound G77, [2-(4-methoxyphenyl)(4-quinolyl)][(2-methoxyphenyl)methyl]amine] | 5.30 to 6.10 |  |
| COc1ccc(-c2cc(Nc3cccc(CN4CCOCC4)c3)c3ccccc3n2)cc1 [Compound G55, [2-(4-methoxyphenyl)(4-quinolyl)][3-(morpholin-4-ylmethyl)phenyl]amine] | 6.10 to 6.70 |  |
| CCN(CC)S(=O)(=O)c1ccc(C)c(-c2cc(NCCCN3CCCCC3)c3ccccc3n2)c1 [Compound I242] | < 5.30 |  |
| Fc1ccc(-c2cc(NCCCC3CCCNC3)c3ccccc3n2)cc1 (stereo not drawn) [Compound I188, [2-(4-fluorophenyl)(4-quinolyl)](3-piperidylpropyl)amine] | 5.30 to 6.10 |  |
| Fc1cccc(-c2cc(NCCCC3CCCNC3)c3ccccc3n2)c1 (stereo not drawn) [Compound I162, [2-(3-fluorophenyl)(4-quinolyl)](3-piperidylpropyl)amine] | 5.30 to 6.10 |  |
| CCN1CCN(Cc2ccc(Nc3cc(-c4ccc(C(N)=O)cc4)nc4ccccc34)cc2)CC1 [Compound I215, 4-[4-({4-[(4-ethylpiperazinyl)methyl]phenyl}amino)-2-quinolyl]benzamide] | < 5.30 |  |
| COc1ccc(-c2cc(NCCC3CCCN3C)c3ccccc3n2)cc1 (stereo not drawn) [Compound I24, [2-(4-methoxyphenyl)(4-quinolyl)][2-(1-methylpyrrolidin-2-yl)ethyl]amine] | 5.30 to 6.10 |  |
| NCCCNC(=O)c1ccc(-c2cc(NCCCN3CCCCC3)c3ccccc3n2)cc1 [Compound I195] | 6.10 to 6.70 |  |
| COc1ccc(-c2cc(NCc3ccc(Cl)cc3)c3ccccc3n2)cc1 [Compound G74, [(4-chlorophenyl)methyl][2-(4-methoxyphenyl)(4-quinolyl)]amine] | 5.30 to 6.10 |  |
| Clc1cccc(-c2cc(Nc3cccc(CC4CCNCC4)c3)c3ccccc3n2)c1 [Compound I20, [2-(3-chlorophenyl)(4-quinolyl)][3-(4-piperidylmethyl)phenyl]amine] | 5.30 to 6.10 |  |
| COc1ccc(-c2cc(NCCCN3CCCCC3)c3cc(OC)ccc3n2)cc1 [Compound G25, [6-Methoxy-2-(4-methoxy-phenyl)-quinolin-4-yl]-(3-piperidin-1-yl-propyl)-amine] | < 5.30 |  |
